Holding throughout (type): biochemical
One experiment deals with PKR T384W (Homo sapiens, UniProt P30613). Kind of experiment: PKR T384W Single Point Percent Activation Assay. Particulars: compound at 1 μM. The protocol:
PKR T384W Single Point Percent Activation Assay
A compound described herein was diluted with DMSO and tested at 1 μM concentration. The enzyme was diluted in 1× Buffer: (100 mM KCl, 50 mM Tris 7.5, 5 mM MgCl2, 1 mM DTT, 0.03% BSA). 2 μL of compound solution was first added into wells, and then 180 μL enzyme solution was added. Assays were assembled except for ADP, and plates were stored for 60 minutes at RT. 20 μL ADP was added to start the assay and assay output was evaluated using OD340 at SpectraMax. The assay was run at room temperature.
PKR T384W soluble (300 ng/well), Tris pH 7.5 (50 mM), KCl (100 mM), MgCl2 (5 mM), ADP (0.08 mM), PEP (0.23 mM), NADH (180 μM), LDH (0.5 units, Sigma 59023), DTT (1 mM) and BSA (0.03%).

The next experiment concerns the target PKR R532W (Homo sapiens, UniProt P30613, R532W). Kind of experiment: PKR R532W Single Point Percent Activation Assay. To be noted: compound at 1 μM; read-out: % Act. R532W. The protocol:
PKR R532W Single Point Percent Activation Assay
(§1) A compound described herein was diluted with DMSO and tested at 1 μM concentration. The enzyme was diluted in 1× Buffer: (100 mM KCl, 50 mM Tris 7.5, 5 mM MgCl2, 1 mM DTT, 0.03% BSA). 2 μL of compound solution was first added into wells, and then 180 μL of enzyme solution was added. Assays were assembled except for ADP, and plates were stored for 60 minutes at RT. 20 μL ADP was added to start the assay and assay output was evaluated using OD340 at SpectraMax. The assay was run at room temperature.
PKR R532W (100 ng/well), Tris pH 7.5 (50 mM), KCl (100 mM), MgCl2 (5 mM), ADP (0.36 mM), PEP (0.1 mM), NADH (180 μM), LDH (0.5 units, Sigma 59023), DTT (1 mM) and BSA (0.03%).

The next experiment has as its target PKR R510Q (Homo sapiens, UniProt P30613, R510Q). Kind of experiment: PKR R510Q Single Point Percent Activation Assay. To be noted: compound at 1 μM; read-out: % Act. R510Q. As for the experimental part: PKR R510Q Single Point Percent Activation Assay
as §1
PKR R510Q (40 ng/well), Tris pH 7.5 (50 mM), KCl (100 mM), MgCl2 (5 mM), ADP (0.2 mM), PEP (0.11 mM), NADH (180 μM), LDH (0.5 units, Sigma 59023), DTT (1 mM) and BSA (0.03%).

The next experiment deals with PKR wt (Homo sapiens, UniProt P30613). Kind of experiment: PKR WT Single Point Percent Activation Assay. To be noted: compound at 1 μM. As for the experimental part: PKR WT Single Point Percent Activation Assay
as §1
PKR wt (100 ng/well), Tris pH 7.5 (50 mM), KCl (100 mM), MgCl2 (5 mM), ADP (0.48 mM), PEP (0.15 mM), NADH (180 μM), LDH (0.5 units, Sigma 59023), DTT (1 mM) and BSA (0.03%).

The results in this text go back to patent publication US9388164B2, “Methods of using pyruvate kinase activators” (AGIOS PHARMACEUTICALS, INC, priority 2011, dated 2016).

Chain of PKR wt (P30613 whole entry): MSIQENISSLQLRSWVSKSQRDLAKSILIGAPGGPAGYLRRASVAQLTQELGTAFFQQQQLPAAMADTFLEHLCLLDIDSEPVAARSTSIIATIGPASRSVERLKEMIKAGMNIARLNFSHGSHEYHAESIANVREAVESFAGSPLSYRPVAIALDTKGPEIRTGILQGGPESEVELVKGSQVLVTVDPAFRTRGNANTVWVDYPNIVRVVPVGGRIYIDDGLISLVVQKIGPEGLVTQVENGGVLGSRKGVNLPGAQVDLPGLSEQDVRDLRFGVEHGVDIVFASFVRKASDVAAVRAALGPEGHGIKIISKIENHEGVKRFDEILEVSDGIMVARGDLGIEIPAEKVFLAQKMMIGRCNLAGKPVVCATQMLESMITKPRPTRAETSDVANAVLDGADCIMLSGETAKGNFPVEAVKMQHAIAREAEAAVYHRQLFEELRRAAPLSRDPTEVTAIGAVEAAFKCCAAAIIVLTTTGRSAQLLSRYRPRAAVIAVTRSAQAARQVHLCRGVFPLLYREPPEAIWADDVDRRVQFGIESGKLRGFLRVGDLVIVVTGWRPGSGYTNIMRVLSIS
Chain of PKR R532W (P30613 whole entry R532W): as the sequence (P30613 whole entry) above, with R532W counted along it
Chain of PKR R510Q (P30613 whole entry R510Q): as the sequence (P30613 whole entry) above, with R510Q counted along it
Chain of PKR T384W (P30613 whole entry T384M): as the sequence (P30613 whole entry) above, with T384M counted along it

As to `CN(Cc1ccccc1)C1CN(C(=O)c2ccc(NS(=O)(=O)c3cccc4cccnc34)cc2)C1`, on PKR T384W, the “% Act. T384W” value is given as “B (a % activation at 1 μM of from 101 to 500)”. Further, the activation at 1 µM on PKR R532W, at PKR R510Q and on PKR wt was 101 to 500% throughout.
`Cc1cc(C(=O)N2CC(NC(=O)NC(C)C)C2)ccc1NS(=O)(=O)c1cccc2cccnc12`: at PKR T384W, the “% Act. T384W” value was “B (a % activation at 1 μM of from 101 to 500)”. The activation at 1 µM at PKR R532W, on PKR R510Q and at PKR wt was 101 to 500% throughout.
For the compound `COc1ccncc1NC1CN(C(=O)c2ccc(NS(=O)(=O)c3cccc4cccnc34)c(C)c2)C1`, the “% Act. T384W” value at PKR T384W was “B (a % activation at 1 μM of from 101 to 500)”. In addition, the values for the activation at 1 µM at PKR R532W, on PKR R510Q and on PKR wt were 1 to 100%, 1 to 100% and 101 to 500%, respectively.
For the compound `Cc1cc(C(=O)N2CC(Nc3ccncc3)C2)ccc1NS(=O)(=O)c1cccc2cccnc12`, the “% Act. T384W” value at PKR T384W is on record as “A (a % activation at 1 μM of from 1 to 100)”. In addition, the activation at 1 µM at PKR R532W is 1 to 100%; at PKR R510Q it was 1 to 100%; on PKR wt, 101 to 500%.
Consider `COc1ccccc1NC1CN(C(=O)c2ccc(NS(=O)(=O)c3cccc4cccnc34)cc2)C1`, for which, on PKR T384W, the “% Act. T384W” value is listed as “A (a % activation at 1 μM of from 1 to 100)”. Further, the activation at 1 µM at PKR R532W lay within 1 to 100%; at PKR R510Q, 101 to 500%; on PKR wt, 1 to 100%.
On to `O=C(c1ccc(NS(=O)(=O)c2cccc3cccnc23)cc1)N1CC(O)C1`, for which the “% Act. T384W” value on PKR T384W is “B (a % activation at 1 μM of from 101 to 500)”. Moreover, the activation at 1 µM at PKR R532W, on PKR R510Q and at PKR wt was 101 to 500% in each case.
Turning to `COc1cc(NS(=O)(=O)c2cccc3cccnc23)ccc1C(=O)N1CC(OC(=O)NC(C)C)C1`, the “% Act. T384W” value on PKR T384W was “B (a % activation at 1 μM of from 101 to 500)”. The activation at 1 µM on PKR R532W, on PKR R510Q and on PKR wt was 101 to 500% in each case.
As for `COc1cc(NS(=O)(=O)c2cccc3cccnc23)ccc1C(=O)N1CC(O)(Cc2ccccc2)C1`, the “% Act. T384W” value on PKR T384W is “B (a % activation at 1 μM of from 101 to 500)”. The activation at 1 µM on PKR R532W, on PKR R510Q and at PKR wt was 101 to 500% throughout.
Regarding `Cc1cc(C(=O)N2CC(N(C)Cc3ccccc3)C2)ccc1NS(=O)(=O)c1cccc2cccnc12`, the “% Act. T384W” value at PKR T384W is “A (a % activation at 1 μM of from 1 to 100)”. The activation at 1 µM at PKR R532W, at PKR R510Q and at PKR wt was 101 to 500% each time.
As to `CC1(O)CN(C(=O)c2ccc(NS(=O)(=O)c3cccc4cccnc34)cc2)C1`, the “% Act. T384W” value on PKR T384W is reported as “B (a % activation at 1 μM of from 101 to 500)”. Also, the activation at 1 µM at PKR R532W lay in the range of 1 to 100%; on PKR R510Q, 101 to 500%; at PKR wt, 101 to 500%.
With `O=C(c1ccc(NS(=O)(=O)c2cccc3cccnc23)cc1)N1CC(=Cc2ccccc2)C1`, the “% Act. T384W” value on PKR T384W was “A (a % activation at 1 μM of from 1 to 100)”. Besides, the activation at 1 µM on PKR R532W, on PKR R510Q and at PKR wt was 1 to 100% each time.
Regarding `Cc1cc(C(=O)N2CC(Nc3ccccn3)C2)ccc1NS(=O)(=O)c1cccc2cccnc12` [drawing 55], at PKR T384W, the “% Act. T384W” value was “B (a % activation at 1 μM of from 101 to 500)”. For the same compound, the activation at 1 µM on PKR R532W, on PKR R510Q and on PKR wt was 1 to 100% in each case.
For the compound `Cc1cc(C(=O)N2CC(O)(Cc3ccccc3)C2)ccc1NS(=O)(=O)c1cccc2cccnc12`, the “% Act. T384W” value at PKR T384W is “B (a % activation at 1 μM of from 101 to 500)”. Further, the activation at 1 µM on PKR R532W is 1 to 100%; on PKR R510Q, 101 to 500%; at PKR wt, 101 to 500%.
As for `O=C(OC1CN(C(=O)c2ccc(NS(=O)(=O)c3cccc4cccnc34)cc2)C1)c1ccccn1`, the “% Act. T384W” value at PKR T384W is on record as “B (a % activation at 1 μM of from 101 to 500)”. Also, the activation at 1 µM was 1 to 100% on PKR R532W, 101 to 500% on PKR R510Q and 101 to 500% at PKR wt.
In the case of `COc1ccccc1NC1CN(C(=O)c2ccc(NS(=O)(=O)c3cccc4cccnc34)c(C)c2)C1`, on PKR T384W, the “% Act. T384W” value is “A (a % activation at 1 μM of from 1 to 100)”. The values for the activation at 1 µM at PKR R532W, at PKR R510Q and at PKR wt were 1 to 100%, 101 to 500% and 1 to 100%, respectively.
As to `COc1cc(NS(=O)(=O)c2cccc3cccnc23)ccc1C(=O)N1CC(C)(O)C1`, the “% Act. T384W” value at PKR T384W is on record as “B (a % activation at 1 μM of from 101 to 500)”. Further, the activation at 1 µM on PKR R532W fell in the range of 1 to 100%; on PKR R510Q, 101 to 500%; at PKR wt, 101 to 500%.
For `COc1cc(C(=O)N2CC(Oc3ccccc3OC)C2)ccc1NS(=O)(=O)c1cccc2cccnc12`, on PKR T384W, the “% Act. T384W” value is listed as “B (a % activation at 1 μM of from 101 to 500)”. For the same compound, the activation at 1 µM at PKR R532W, on PKR R510Q and at PKR wt was 101 to 500% in each case.
Turning to `O=C(c1ccc(NS(=O)(=O)c2cccc3cccnc23)cc1)N1CC(Nc2ccccc2)C1`, the “% Act. T384W” value at PKR T384W is reported as “A (a % activation at 1 μM of from 1 to 100)”. Besides, the activation at 1 µM on PKR R532W, at PKR R510Q and at PKR wt was 1 to 100% throughout.
Regarding `COc1ccccc1OC1CN(C(=O)c2ccc(NS(=O)(=O)c3cccc4cccnc34)cc2OC)C1`, the “% Act. T384W” value at PKR T384W is recorded as “B (a % activation at 1 μM of from 101 to 500)”. Besides, the figures for the activation at 1 µM on PKR R532W, at PKR R510Q and at PKR wt were 101 to 500%, 1 to 100% and 101 to 500%, respectively.
`COc1ncccc1NC1CN(C(=O)c2ccc(NS(=O)(=O)c3cccc4cccnc34)c(C)c2)C1`: the “% Act. T384W” value at PKR T384W is on record as “B (a % activation at 1 μM of from 101 to 500)”. Also, the activation at 1 µM on PKR R532W, on PKR R510Q and on PKR wt was 101 to 500% in each case.
As to `O=C(Nc1ccccn1)OC1CN(C(=O)c2ccc(NS(=O)(=O)c3cccc4cccnc34)c(F)c2)C1`, the “% Act. T384W” value at PKR T384W is “B (a % activation at 1 μM of from 101 to 500)”. Further, the activation at 1 µM at PKR R532W, at PKR R510Q and on PKR wt was 101 to 500% in each case.
As to `COc1cc(C(=O)N2CC(OC(=O)Nc3ccccn3)C2)ccc1NS(=O)(=O)c1cccc2cccnc12`, the “% Act. T384W” value on PKR T384W is recorded as “A (a % activation at 1 μM of from 1 to 100)”. The activation at 1 µM lay within 1 to 100% on PKR R532W, 101 to 500% on PKR R510Q and 1 to 100% on PKR wt.
In the case of `CC(C)NC(=O)OC1CN(C(=O)c2ccc(NS(=O)(=O)c3cccc4cccnc34)c(F)c2)C1`, the “% Act. T384W” value at PKR T384W is given as “B (a % activation at 1 μM of from 101 to 500)”. Besides, the activation at 1 µM is 1 to 100% at PKR R532W, 101 to 500% on PKR R510Q and 101 to 500% at PKR wt.
Turning to `O=C(c1ccc(NS(=O)(=O)c2cccc3cccnc23)c(F)c1)N1CC(Oc2ccccc2)C1`, the “% Act. T384W” value on PKR T384W is reported as “B (a % activation at 1 μM of from 101 to 500)”. The activation at 1 µM at PKR R532W, on PKR R510Q and on PKR wt was 101 to 500% each time.
